In US10738019B2, “Compound including basic dye and amino acid, hair dyeing dye, and hair dyeing composition” (HODOGAYA CHEMICAL CO., LTD., priority 2018, dated 2020):

Assay: Water solubility, foaming property and hair feel during hair dyeing
Type: physicochemical
Conditions: for hair dyeing (dyeing gel, pH 6 aqueous solution)
Description: Subsequently, Human White hair 100% BM-W manufactured by Beaulax Co., Ltd. was used as hair to be dyed. Two parts by mass of the dyeing gel was taken with respect to 1 part by mass of the hair and applied to the hair uniformly using a comb, and the hair was dyed at 40° C. for 10 minutes and washed with water.

SMILES	water solubility
CC1=CC(=C(c2ccc(N)c(C)c2)c2ccc(N)c(C)c2)C=CC1=N [Compound (A-3)]	sufficient water solubility for hair dyeing
C[N+](C)(C)c1ccc2ccc(O)c(N=Nc3ccc(N)cc3)c2c1 [Compound (A-5)]	sufficient water solubility for hair dyeing
